Experimental data taken from BindingDB's records for doi:10.7270/Q2V986FT (Emory University, 2007).

Biological target: T1, 14-3-3 protein gamma (Homo sapiens, UniProt P61981)
T1 sequence (P61981 whole entry): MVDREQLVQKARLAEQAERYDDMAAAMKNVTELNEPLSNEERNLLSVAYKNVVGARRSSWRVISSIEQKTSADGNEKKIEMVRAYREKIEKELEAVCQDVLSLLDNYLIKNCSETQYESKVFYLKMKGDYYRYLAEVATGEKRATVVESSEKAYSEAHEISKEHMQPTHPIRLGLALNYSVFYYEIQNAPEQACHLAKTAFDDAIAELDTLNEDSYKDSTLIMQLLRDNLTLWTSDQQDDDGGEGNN
Experiment: modulators of 14-3-3 gamma client binding – dose response (AID 711)

IC50 | SMILES
3.15 µM | CC1=NC(c2ccccc2)C(C#N)(C#N)C(C#N)(C#N)C1 (stereo not drawn) [SMR000037705]
> 50 µM | CC(N=O)C(=O)NCc1ccccn1 (stereo not drawn) [(2E)-2-(hydroxyimino)-N-(pyridin-2-ylmethyl)propanamide]
> 50 µM | Cc1ccc(C2C3CN(C(C)C)CCC3=C(C#N)C(=N)C2(C#N)C#N)cc1 (stereo not drawn) [SMR000034220]
